We go through one compound from PMC6222927, “Aminobenzosuberone Scaffold as a Modular Chemical Tool for the Inhibition of Therapeutically Relevant M1 Aminopeptidases” (Molecules : A Journal of Synthetic Chemistry and Natural …, 2018).

One test deals with E. coli rEcPepN (Escherichia coli, UniProt P04825). Kind of test: rEcPepN inhibition, Leu-pNA substrate, Dixon method. The class given is biochemical. On the procedure:
Enzyme activity assays were carried out in 10 mM Tris-HCl buffer at pH 7.5 with 150 mM NaCl, enzyme, 100 µM substrate (Leu-pNA) in a 100 μL reaction at 37 °C. The absorbance was read at 405 nm. Concentrations ranging from 1 nM to 100 μM of inhibitors (dissolved in DMSO) were incubated with each of the enzymes ([…]) for 30 min at 37 °C in a 96 well plate. After addition of the substrate, immediate increase in absorption was measured. All inhibition assays were performed in triplicates and initial velocities were measured. Percentage inhibition and log values of inhibitor concentrations were plotted using SigmaPlot to determine IC50 values. Ki values were determined by the Dixon method. The assay consists of reaction buffer, enzyme and varied concentrations of Leu-pNA (25, 50, 100, 200 and 400 µM). […] Data were plotted as 1/rate versus inhibitor concentration for each substrate concentration and a linear fit was calculated by non-linear regression using SigmaPlot12.5. All the reactions were performed in triplicates, SD values were reported.

Test [1] addresses human leukotriene A4 hydrolase (rHsLTA4H). More on the design: method as in PMID 21843945. Particulars: ref 58; cited from earlier work.
The target in a further test is T1, P. falciparum rPfAM17 (Plasmodium falciparum, UniProt Q8IL11).
T1 construct: made in house; host or cells: Escherichia coli Rosetta 2 (DE3)
T1 sequence (Q8IL11 1-605): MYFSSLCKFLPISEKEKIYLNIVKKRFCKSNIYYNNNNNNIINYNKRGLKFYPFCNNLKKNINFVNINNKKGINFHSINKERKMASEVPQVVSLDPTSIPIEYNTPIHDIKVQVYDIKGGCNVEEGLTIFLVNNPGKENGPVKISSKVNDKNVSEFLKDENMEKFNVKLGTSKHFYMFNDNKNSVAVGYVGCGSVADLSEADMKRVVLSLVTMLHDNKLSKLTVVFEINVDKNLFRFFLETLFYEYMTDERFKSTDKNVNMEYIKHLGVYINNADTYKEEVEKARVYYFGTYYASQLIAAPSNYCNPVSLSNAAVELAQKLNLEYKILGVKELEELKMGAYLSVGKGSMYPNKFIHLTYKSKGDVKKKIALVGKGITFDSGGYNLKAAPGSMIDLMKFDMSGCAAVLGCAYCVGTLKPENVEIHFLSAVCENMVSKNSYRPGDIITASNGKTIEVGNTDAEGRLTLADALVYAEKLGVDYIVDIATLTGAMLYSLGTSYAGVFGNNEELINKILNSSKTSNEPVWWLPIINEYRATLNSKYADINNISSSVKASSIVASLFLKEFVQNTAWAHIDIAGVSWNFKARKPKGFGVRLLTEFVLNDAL
Kind of test: rPfAM17 inhibition, Leu-pNA substrate, Dixon plots. The class given is biochemical. On the procedure: Tests were carried out on HP/Agilent UV-Visible diode array spectrophotometer 8453 (HP/Agilent, Santa Clara, CA, USA), at 30 °C in Tris HCl 50 mM pH 7.4 for rPfAM1 and pH 8 for rPfAM17, with a final DMSO concentration of 1%. […]. […] Initial velocities were measured with increasing concentrations of inhibitors and Ki values were determined by Dixon plots in triplicate.

The next test has as its target pAPN from porcine kidney. Conditions: Dixon plots; cited from earlier work.

Sequence of E. coli rEcPepN (P04825 whole entry): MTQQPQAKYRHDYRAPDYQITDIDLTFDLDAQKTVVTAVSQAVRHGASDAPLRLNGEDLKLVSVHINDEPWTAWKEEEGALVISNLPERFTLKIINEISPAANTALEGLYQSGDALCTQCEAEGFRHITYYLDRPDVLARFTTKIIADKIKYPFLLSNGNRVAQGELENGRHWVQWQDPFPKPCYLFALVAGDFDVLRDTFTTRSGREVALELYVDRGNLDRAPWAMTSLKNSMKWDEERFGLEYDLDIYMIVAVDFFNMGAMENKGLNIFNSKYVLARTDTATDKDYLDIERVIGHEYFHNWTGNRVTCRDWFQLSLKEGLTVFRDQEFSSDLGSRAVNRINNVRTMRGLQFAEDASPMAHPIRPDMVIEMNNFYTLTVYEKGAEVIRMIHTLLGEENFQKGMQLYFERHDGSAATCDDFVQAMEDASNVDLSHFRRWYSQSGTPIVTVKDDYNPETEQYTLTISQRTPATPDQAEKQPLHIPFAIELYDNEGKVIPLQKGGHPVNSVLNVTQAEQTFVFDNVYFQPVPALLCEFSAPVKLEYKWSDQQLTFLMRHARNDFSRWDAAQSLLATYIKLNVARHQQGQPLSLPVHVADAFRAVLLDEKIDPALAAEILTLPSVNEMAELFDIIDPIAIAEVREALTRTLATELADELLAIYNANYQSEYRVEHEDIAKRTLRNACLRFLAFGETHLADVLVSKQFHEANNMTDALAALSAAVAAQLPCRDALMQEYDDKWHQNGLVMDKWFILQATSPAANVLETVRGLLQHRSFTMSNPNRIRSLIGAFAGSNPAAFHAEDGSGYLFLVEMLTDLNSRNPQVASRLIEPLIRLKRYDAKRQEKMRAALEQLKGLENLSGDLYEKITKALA

Turning to `NC1CCc2c(Br)cccc2CC1=O` (stereo not shown) [21e], the Ki on E. coli rEcPepN was 4.59 ± 0.17 µM; in test [1] it was above 100 µM; on P. falciparum rPfAM17 it was above 100 µM; on pAPN from porcine kidney, 0.02 µM.
